Experimental data from PMC7425896, “Polypeptides derived from α-Synuclein binding partners to prevent α-Synuclein fibrils interaction with and take-up by cells” (PLoS ONE, 2020).
No end group written: not given here.

Legend:
Neuro-2a cells [1] = experiment: Internalization (take-up) of αSyn-Alexa488 fibrils by Neuro-2a cells, 96-well plate assay with Trypan blue quenching; type: cell-based, Murine; settings: Trypan blue quench; for effect of endocytosis inhibitors on αSyn fibrils take-up by Neuro-2a cells: cells exposed 1 hour to chlorpromazine 0–10 μg/ml or EIPA 0–50 μM before αSyn-Alexa488 fibrils 0.5 μM, 4 hours, 5 wells
Description: The uptake of Alexa488-labeled αSyn fibrils (0.5 μM equivalent monomer concentration) pre-incubated or not for 30 min at 37°C in DMEM with the ligands (Hsc70, peptides or Surfen) at different concentrations to Neuro-2A cells was also assessed using a 96-well plate assay. The cells cultured on 96-wells plates were incubated with the fibrils, preincubated or not with the ligands for 30 min at 37°C in DMEM, in 5 independent wells. After 4 hours the media was removed and Hoechst (Sigma-Aldrich) diluted at 0.2 μg/ml in serum-free, phenol red-free DMEM was added for 30 min. The cells were washed twice with serum-free, phenol red-free DMEM and 0.1% Trypan Blue (Sigma-Aldrich) was added to quench the fluorescence of plasma membrane-bound Alexa488-labeled αSyn fibrils. For each wells Alexa488 and Hoechst fluorescences were recorded on a Clariostar microplate reader (BMG LABTECH GmbH, Germany).
To assess to role of endocytosis in αSyn fibrils internalization, Neuro-2a cells cultured on 96-wells plates were first incubated with increasing concentrations of chlorpromazine or l’5-N-ethyl-isopropyl-amiloride (EIPA). After 1 hour Alexa488-labeled αSyn fibrils (0.5 μM equivalent monomer concentration) was added. The experiment was then performed as above.

αSyn fibrils [2] = target: T1, αSyn fibrils (Homo sapiens, UniProt P37840); experiment: Binding of peptides and Surfen to preformed αSyn fibrils, sedimentation and reversed phase chromatography; settings: αSyn fibrils 100 μM; for Bound peptides / Bound peptides (%) / binding to αSyn fibrils (in words): ligand 200 μM, 1h RT, PBS; for Bound peptides / Bound peptides (%): pellet 20,000g, C18 reversed phase chromatography, absorbance 215 nm (peptides) or 260 nm (Surfen); for binding to αSyn fibrils (in words) / Kd: sedimentation, reversed phase chromatography; for Kd: peptide 0–200 μM
T1 construct: made in house
Description: Hsc70-derived peptides, the […] peptide or the Surfen molecule (0 or 200 μM) were incubated with or without αSyn fibrils (100 μM) for 1h at RT in PBS. The samples were centrifuged for 30 min in a […] tabletop centrifuge (Eppendorf) at 20,000g and 20°C. The pellets were first washed by 100 μL of 0.1% TFA and then dissolved for 30 min in 30 μL of pure TFA. After TFA evaporation, the samples were resuspended in 0.1% TFA and stored at -20°C. The composition of each sample was assessed by phase reverse chromatography on a C18 column (Jupiter C18 300A from Phenomenex, Torrance, CA, USA). The solvant composition was 0.1% TFA for solvent A and 80% acetonitrile, 0.09% TFA for solvent B, and the flow was set at 200 μl/min. The column was equilibrated in 5% B. The peptides were eluted by a gradient from 5% to 80% of solvent B. The amount of αSyn-associated ligand present in each sample was determined by comparing their respective absorbance at 215 nm (peptides) or 260 nm (Surfen) to the absorbance of a known amount of the same ligand. For KD measurements the same experiment was performed using a range of peptide concentrations (0-200 μM).

[3] = Secondary structure content by far-UV circular dichroism; type: physicochemical; settings: far-UV CD, 20°C, deconvoluted with Dichroweb
Description: Far-UV CD spectra were recorded at 20°C using a JASCO J-810 dichrograph equipped with a thermostated cell holder using a 0.01-cm path length quartz cuvette. Each spectrum was the average of 10 acquisitions recorded in the 260–195 nm range with 0.5-nm steps, a bandwidth of 2 nm, and at a speed of 50 nm/min. All spectra were buffer corrected. The spectra were deconvoluted with the Dichroweb software.

monomeric αSyn = experiment: Monomeric αSyn assembly into fibrils monitored by Thioflavin T binding; type: biochemical, human; settings: soluble αSyn 50 μM, peptide 50 μM (equimolar), PBS, 37°C, 600 rpm, 4 independent experiments
Description: αSyn (50 μM monomer concentration) was incubated in the absence or in the presence of peptides (50 μM) in PBS at 37°C under continuous shaking in an Eppendorf Thermomixer set at 600 rpm. Aliquots (10 μL) were withdrawn at different time intervals from the assembly reaction and mixed to a Thioflavin T solution (10 μM; 400 μL). Thioflavin T fluorescence was recorded with a Cary Eclipse spectrofluorimeter (Varian Medical Systems Inc.) using excitation and emission wavelengths set at 440 and 480 nm, respectively. The nature of the fibrils obtained at the end of the aggregation reaction was assessed by electron microscopy as described above. The proportion of αSyn assembled into fibrils was assessed by ultracentifugation in a TL100 tabletop centrifuge (Beckman) at 50,000g and 20°C for 30 min and analyse of the supernatant and pellet fractions by SDS-PAGE. Following Coomassie staining / destaining the gels were visualized using a ChemiDocTM MP (BioRad). Images were processed and quantified using Image Lab.

αSyn fibrils [4] = target: T1, αSyn fibrils; experiment: Filter trap (cellulose acetate filter retardation) assay of ATTO488-labelled Hsc70 and subdomains binding to αSyn fibrils; settings: labelled:unlabelled 1:50, 0–2 μM (domains 0–5 μM), αSyn fibrils 1 μM, PBS, 1h RT, fluorescence, filtered in triplicate, 2 to 3 independent experiments, read-out: KD of ATTO488-labelled polypeptides for αSyn fibrils
Description: The KD for Hsc70, SBD, SBDβ and SBD-lid interaction with αSyn fibrils were measured as follow. Hsc70 and its subdomains were first labeled by addition of the aminoreactive fluorescent dye ATTO488 (Invitrogen, Carlsbad, CA, USA) using a protein:dye molar ratio of 1:5. The reaction was stopped by adding Tris-HCl pH 7.5 (20 mM final concentration). The unreacted fluorophore was removed by NAP5 desalting column. Under these conditions the majority of primary amines unaffected by the labelling as 0.05 to 0.08 dye molecules were incorporated on average within Hsc70 or its subdomains, as assessed by absorbance spectroscopy. Binding of ATTO488-labeled polypeptides to fibrillar αSyn was then followed by a filter retardation assay where fibrils and associated proteins are retained on a membrane. The different ATTO488-labeled polypeptides were diluted with their unlabeled counterpart (labeled:unlabeled polypeptides ratio of 1:50) at different final concentrations (0–2 μM) and incubated with or without αSyn fibrils (1 μM) in PBS for 1h at RT. 200 μl of each sample were filtered in triplicate through cellulose acetate membranes (0.2 μm pore size, Millipore Corp., Bedford, MA) using a 48-slot slot-blot filtration apparatus (GE Healthcare). The amount of labeled polypeptide retained on the membrane was visualized using a ChemiDocTM MP (BioRad). Images were processed and quantified using Image Lab.

fibrillar αSyn [5] = experiment: Sedimentation assay of Hsc70 with fibrillar αSyn, SDS-PAGE of pellet and supernatant; type: binding, human; settings: Hsc70 10 μM, fibrillar αSyn 100 μM, 1h RT, PBS, 50,000g 30 min
Description: For binding assay, αSyn fibrils (100 μM) alone, Hsc70 alone (10 μM) or αSyn fibrils and Hsc70 (100 and 10 μM, respectively) were incubated for 1h at RT in PBS. Samples were spun for 30 min at 50,000g and 20°C in a TL100 tabletop ultracentrifuge (Beckman) and the proportion of Hsc70 present in the pellet vs the supernatant was analysed by SDS-PAGE.

fibrillar αSyn [6] = settings: sedimentation assay; read-out: dissociation constant of Hsc70 for fibrillar αSyn; cited from earlier work
Description: We previously brought evidence for Hsc70 interaction with fibrillar αSyn using a sedimentation assay. The dissociation constant we measured was 0.1 μM. Here we confirmed the interaction between Hsc70 and fibrillar αSyn using the same sedimentation assay followed by quantitative analysis of the proteins in the pellet and the supernatant fractions by SDS-PAGE (Fig 1A). […] To determine the affinity of Hsc70 for fibrillar αSyn we incubated preform ...

Neuro-2a cells [7] = experiment: Binding of αSyn-Alexa488 fibrils to the plasma membrane of Neuro-2a cells; type: cell-based, Murine; settings: αSyn-Alexa488 fibrils 1 μM pre-incubated with ligand (0–10 μM) in DMEM 30 min 37°C; cells exposed 30 min; % cells with at least 1 fluorescent foci
Description: Alexa488-labeled αSyn fibrils (1 μM equivalent monomer concentration) were first incubated for 30 min at 37°C in DMEM without or with the ligands (Hsc70 or the NKApep peptide) at different concentrations. Neuro-2a cells cultured on ibidi-μ-Dishes (ibidi, Martinsried, Germany) were then incubated for 30 min with this mix. Then, the cells were washed and immediately imaged in serum-free, phenol red-free DMEM on a Zeiss Axio Observer Z1 epifluorescence microscope equipped with an Incubator XLmulti S2 RED LS (Carl Zeiss) and an Orca-R2 camera (Hamamatsu) at a 20x magnification. The percentage of cells with bound Alexa488 foci was estimated by randomly counting at least 500 cells in 10–15 fields and the experiments were reproduced independently 3 times. For each field the number of foci was automatically assessed using the software Fiji and an in-house built plugin.

Molecule | Bound peptides (αSyn fibrils [2]) [µM] | Bound peptides (%) (αSyn fibrils [2]) | binding to αSyn fibrils (in words) (αSyn fibrils [2]) | Secondary structure composition other [3] [%] | Secondary structure composition α-helix [3] [%] | Secondary structure composition β-strand [3] [%] | also measured
CCN(c1nc(N)c(C(=O)N=C(N)N)nc1Cl)C(C)C [EIPA, l’5-N-ethyl-isopropyl-amiloride] |  |  |  |  |  |  | effect of endocytosis inhibitors on αSyn fibrils take-up by Neuro-2a cells (Neuro-2a cells [1]): inhibited in a dose-dependent manner
Cc1cc(N)c2cc(NC(=O)Nc3ccc4nc(C)cc(N)c4c3)ccc2n1 [Surfen, reference compound] | 176 | 88 | found to bind to αSyn fibrils |  |  |  | effect on αSyn fibrils take-up by Neuro-2a cells (Neuro-2a cells [1]; ligand 2 or 10 μM with Alexa488-labeled αSyn fibrils 1 μM in DMEM 30 min 37°C, cells exposed 2 hours, 3 independent experiments): affected, in a dose-dependent way, their take-up
CN(C)CCCN1c2ccccc2Sc2ccc(Cl)cc21 [chlorpromazine] |  |  |  |  |  |  | effect of endocytosis inhibitors on αSyn fibrils take-up by Neuro-2a cells (Neuro-2a cells [1]): inhibited in a dose-dependent manner
FTTYSDNQPGV [Hsc-5] | 2.8 | 1.4 | did not bind | 85 | 0 | 15 | 
GILNVSAVDKSTGKENKITITN [Hsc-10] | 72 | 36 | did bind | 41 | 46 | 13 | effect on αSyn assembly into fibrils (monomeric αSyn): accelerated aggregation; Kd (αSyn fibrils [2]): > 100000 nM
GKFELTGIPPAPRGVPQIEVT [Hsc-8] | 1.6 | 0.8 | did not bind | 69 | 7 | 24 | 
Hsc70-ATTO488: Hsc70 labeled with the aminoreactive fluorescent dye ATTO488 |  |  |  |  |  |  | Kd (αSyn fibrils [4]): 490 ± 20 nM
Hsc70: molecular chaperone Hsc70, recombinant His6-tagged, full-length |  |  |  |  |  |  | effect on αSyn fibrils take-up by Neuro-2a cells (Neuro-2a cells [1]; αSyn-Alexa488 fibrils 0.5 μM pre-incubated with ligand 0–10 μM in DMEM 30 min 37°C, cells exposed 4 hours, plate reader): significantly affected their take-up; Hsc70 co-sedimentation with pre-formed αSyn fibrils (fibrillar αSyn [5]): pulled into the pellet; Kd (fibrillar αSyn [6]): 100 nM; effect on αSyn fibrils binding to Neuro-2a cells (Neuro-2a cells [7]): affects αSyn fibrils binding to Neuro-2a cells in a dose-dependent manner
LSKEDIERMVQEAEKY [Hsc-1] | 1.2 | 0.6 | did not bind | 48 | 52 | 0 | 
LTGIPPAPRGVPQIE [Hsc-7] | 1.2 | 0.6 | did not bind | 73 | 10 | 17 | 
NMKATVEDEKLQGKINDEDKQKIL [Hsc-3] | 1.2 | 0.6 | did not bind | 84 | 9 | 7 | 
TKQTQTFTTYSDNQPGVLIQVYE [Hsc-6] | 68 | 34 | did bind | 80 | 0 | 20 | effect on αSyn assembly into fibrils (monomeric αSyn): significantly slowed down αSyn assembly into fibrils; Kd (αSyn fibrils [2]): > 100000 nM
VEDEKLQGKINDED [Hsc-2] | 1.0 | 0.5 | did not bind | 81 | 6 | 13 | 
